Results reported in article PMC12703428, “Development of Granzyme A Turn‐ON Fluorescent Activity‐Based Probes” (Chembiochem, 2025).
Square brackets hold non-standard residues; d marks the D form. Ends that are not written are not given here. Oic = O=C(O)[C@@H]1C[C@@H]2CCCC[C@@H]2N1; Tic = O=C(O)[C@@H]1Cc2ccccc2CN1

Tests used:
[1] = biological target: T1, recombinant human GzmA (hGzmA) (Homo sapiens, UniProt P12544); assay: In-gel fluorescence labeling of recombinant active hGzmA; type: biochemical; details: hGzmA 100 nM, 37 °C; for Labeling of recombinant hGzmA (in-gel Cy5 fluorescence): varying probe concentrations, 2 h, SDS-PAGE
T1 construct: active, mature form; purchased Enzo Life Sciences ALX-201-118-C010
T1 sequence (P12544 29-262): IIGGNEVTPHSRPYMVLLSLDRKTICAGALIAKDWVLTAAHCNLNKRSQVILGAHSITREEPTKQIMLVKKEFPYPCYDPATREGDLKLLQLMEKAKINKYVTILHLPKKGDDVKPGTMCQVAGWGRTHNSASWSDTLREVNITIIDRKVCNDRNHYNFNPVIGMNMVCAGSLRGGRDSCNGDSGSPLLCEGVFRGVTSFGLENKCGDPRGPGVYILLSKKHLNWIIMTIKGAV
Experimental: Figure 3 GzmA ABPs covalently and competitively label active human and mouse GzmA. […] Recombinant hGzmA (100 nM) was incubated with varying concentrations of each ABP at 37 °C. B) Competitive labeling of hGzmA. Recombinant hGzmA (100 nM) was preincubated with covalent inhibitors 1 or 2 (5 μM) for 2 h, followed by labeling with ABPs 3 –5 (50 nM) for 2 h at 37 °C. Note: Pro‐form of hGzmA (the first lane) is not effectively stained by SYPRO‐Ruby. C) Structure of qABP 6. D) Quenched natures of 5 and 6. […] F) Labeling of mGzmA (1 μM) with 5 and 6 (1 μM, 24 h, 37 °C). Protein samples were analyzed by SDS‐PAGE and in‐gel fluorescence scanning for Cy5 signal and SYPRO Ruby staining. […]
C. In-gel fluorescence imaging
For recombinant enzyme labeling, working solutions of hGzmA (purchased from R&D Systems, Cat. No. 2905-SE-010 for pro-from and Enzo Life Sciences, Cat. No.: ALX-201-118-C010 for active, mature form) were prepared by diluting a 12.6 µM stock in the following assay buffer: 50 […]
mM Tris, 100 mM NaCl, 5 mM CaCl2, 0.01% (v/v) Tween-20, pH 7.5. […]
In-gel fluorescence and
SYPRO-Ruby staining images were acquired on a Typhoon FLA9500 instrument, while western blot images were acquired on an AMHERST ImageQuant 800 instrument.
Conditions for probe/inhibitor treatment for in-gel fluorescence analysis: Inhibitors and probes were incubated with active (or pro-) GzmA followed by treatment with 4X SDS reducing sample buffer. Samples were then heated to 100 °C for 5 min, brought to room temperature, and centrifuged. 20 µL of each sample was loaded onto a 15% polyacrylamide gel, which was then subjected to electrophoresis followed by the acquisition of in-gel fluorescence images. GzmA labeling was confirmed by western blotting, while protein loading was confirmed with SYPRO-Ruby staining. Incubation conditions for each figure/experiment are described below:
Conditions for Figure 3A: For labeling comparison between 3, 4, and 5, 100 nM of human GzmA was incubated with various concentrations of each probe for 2 h at 37 °C. For time-dependent labeling, 50 nM of 5 was incubated with 100 nM of human GzmA at 37 °C for the specified durations. Final reaction volume for both was 20 µL.
Conditions for Figure 3B: 100 nM of human GzmA was incubated with DMSO or 5 µM of 1 or 2 for 2 h at 37 °C in Eppendorf tubes. 0.5 µL of a 2 µM solution of 3, 4, or 5 in DMSO was then spiked into the Eppendorf tube, yielding a final probe concentration of 50 nM. The solution was incubated for another 2 h at 37 °C. Final reaction volume was 20 µL.
Conditions for Figure 3E: 100 nM of human GzmA was incubated with various concentrations of 5 or 6, respectively, for 2 h at 37 °C. Final reaction volume was 20 µL.
Conditions for Figure 3F: 1 µM of mouse GzmA was incubated with 1 µM of 5 or 6, respectively, for 24 h at 37 °C. Final reaction volume was 20 µL.
Conditions for Figure 4A: 1 mg/mL of lysates was incubated with various concentrations of 5 or 6, respectively, for 1 h at 37 °C.
Conditions for Figure 4C: Various concentrations of probes 3-6 were incubated with 1x10^6 NK-92 cells for 2 h at 37 °C in a humidified incubator. Cells were centrifuged, washed with PBS (x2) and lysed with ~40 µL of ice-cold RIPA buffer. Lysates were collected, protein concentration was measured with PIERCE BCA protein assay and samples were analyzed with in-gel fluorescence and GzmA western blotting. […]
All flow cytometry data were collected on BD LSRFortessa and FACSymphony A5 Cell Analyzers and analyzed with FlowJo software. Briefly, cells were processed according to the intended protocols for each experiment. Thereafter, cells were pelleted, fixed in the dark for 20 min at room temperature (Fixation buffer: BioLegend #420801), and pelleted again by centrifugation. Fixed cells were then resuspended in 1x intracellular staining perm wash buffer (BioLegend #421002), followed by centrifugation two times. Fixed/Permeabilized cells were then resuspended in […]

proteinase 3 (PR3) = biological target: T2, proteinase 3 (PR3) (Homo sapiens, UniProt P24158); assay: Cross-reactivity labeling, proteinase 3; type: biochemical; details: protease 100 nM, probe 100 nM, 2 h, 37 °C, in-gel fluorescence
T2 sequence (P24158 28-256): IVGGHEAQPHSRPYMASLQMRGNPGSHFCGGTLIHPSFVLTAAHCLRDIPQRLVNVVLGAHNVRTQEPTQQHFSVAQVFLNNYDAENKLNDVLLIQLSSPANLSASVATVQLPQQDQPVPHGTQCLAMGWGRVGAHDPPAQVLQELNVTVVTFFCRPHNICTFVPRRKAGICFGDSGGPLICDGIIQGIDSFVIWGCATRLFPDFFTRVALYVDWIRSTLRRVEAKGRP
Experimental: Protease (100 nM) HNE PR3 GzmK GzmA
Protease (100 nM) GzmA GzmK
Supplementary Figure 2. Cross-reactivity of probes. (A) Labeling of GzmA, GzmK, PR3, and HNE
(100 nM, 2 h, 37 °C) by 100 nM of 5 and 6. (B) Labeling of GzmA and GzmK (100 nM, 2 h, 37 °C) by
100 nM of 3 – 6. (C) Concentration-dependent labeling of GzmA and GzmK (100 nM, 2 h, 37 °C) by 5 and
6. Protein samples were analyzed by SDS-PAGE and in-gel fluorescence scanning for Cy5 signal.
Protein loading was confirmed by SYPRO Ruby staining. […]

Q: How did the “Labeling of recombinant hGzmA (in-gel Cy5 fluorescence)” value [1] turn out when GFFR [compound 7] was run?
A: Its value is “lower labeling efficiency for both hGzmA and mGzmA compared with probes 5 and 6”.

Q: With IGNR [compound 5] as the substance, how does the “Labeling of PR3 (cross-reactivity)” value (proteinase 3 (PR3)) read?
A: Its value is “Neither probe 5 nor 6 showed detectable labeling”.

Q: And the “Concentration and time dependence of labeling of active hGzmA” value ([1]; time course with 50 nM probe)?
A: Its value is “concentration‐ and time‐dependent labeling”.

Q: And the “Labeling of recombinant hGzmA (in-gel Cy5 fluorescence)” value [1]?
A: The value was “efficiently label recombinant human GzmA (hGzmA) at submicromolar concentrations”.

Q: Which results are given for [Tic]G[Oic]R [compound 6]?
A: Labeling of PR3 (cross-reactivity) (proteinase 3 (PR3)): Neither probe 5 nor 6 showed detectable labeling; Labeling of recombinant hGzmA (in-gel Cy5 fluorescence) [1]: efficiently (and slightly more strongly than 5) labeled
